Laboratory results from US10633417B2 (priority 2013, dated 2020).

Columns and labels:
[1] = biological target: rat α9 (Thr56 to Ile) α10 nAChR (Rattus norvegicus, UniProt P43144+Q9JLB5, T86I); assay type: cell-based
[2] = biological target: human α9 (Ile56 to Thr) α10 nAChR (Homo sapiens, UniProt Q9GZZ6+Q9UGM1, I86T); assay type: cell-based
Sprague-Dawley rats [3] = conditions: rat, in vivo
Sprague-Dawley rats [4] = conditions: rat, in vivo; remark: listed apart in the source
Sprague-Dawley rats [5] = conditions: rat, in vivo; remark: listed apart in the source
Sprague-Dawley rats [6] = conditions: rat, in vivo; remark: listed apart in the source
Sprague Dawley rats [7] = conditions: rat, in vivo
Sprague Dawley rats [8] = conditions: rat, in vivo; remark: listed apart in the source
rat α9α10 nAChR = rat α9α10 nAChR (Rattus norvegicus, UniProt P43144+Q9JLB5); conditions: cited from earlier work
Chain of rat α9α10 nAChR (P43144 26-479 limits assumed): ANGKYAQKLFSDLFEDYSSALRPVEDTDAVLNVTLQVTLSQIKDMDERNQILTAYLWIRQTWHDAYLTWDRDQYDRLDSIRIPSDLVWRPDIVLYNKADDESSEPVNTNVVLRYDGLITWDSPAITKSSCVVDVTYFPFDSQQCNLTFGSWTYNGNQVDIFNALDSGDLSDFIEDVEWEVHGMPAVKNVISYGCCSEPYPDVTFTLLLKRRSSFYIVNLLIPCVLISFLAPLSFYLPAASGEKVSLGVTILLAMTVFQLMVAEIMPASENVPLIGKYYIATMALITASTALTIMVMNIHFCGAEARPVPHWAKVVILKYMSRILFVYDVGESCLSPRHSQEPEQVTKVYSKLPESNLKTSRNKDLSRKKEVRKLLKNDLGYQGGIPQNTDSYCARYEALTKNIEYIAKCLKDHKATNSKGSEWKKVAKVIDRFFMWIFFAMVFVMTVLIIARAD
Chain of rat α9α10 nAChR (Q9JLB5 25-447 limits assumed): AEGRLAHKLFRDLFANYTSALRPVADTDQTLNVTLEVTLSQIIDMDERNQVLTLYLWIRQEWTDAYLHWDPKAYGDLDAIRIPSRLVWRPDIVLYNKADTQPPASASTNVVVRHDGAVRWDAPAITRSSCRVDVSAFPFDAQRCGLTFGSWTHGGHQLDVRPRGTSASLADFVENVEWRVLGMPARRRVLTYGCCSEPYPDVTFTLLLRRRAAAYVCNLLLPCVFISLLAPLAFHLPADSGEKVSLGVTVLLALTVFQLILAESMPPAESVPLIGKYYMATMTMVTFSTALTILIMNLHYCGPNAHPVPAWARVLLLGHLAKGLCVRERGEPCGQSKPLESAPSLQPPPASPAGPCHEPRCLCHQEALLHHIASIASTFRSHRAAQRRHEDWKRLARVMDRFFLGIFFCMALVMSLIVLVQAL

Chain of human α9 (Ile56 to Thr) α10 nAChR (Q9UGM1 26-479 I86T limits assumed, stated change not applied): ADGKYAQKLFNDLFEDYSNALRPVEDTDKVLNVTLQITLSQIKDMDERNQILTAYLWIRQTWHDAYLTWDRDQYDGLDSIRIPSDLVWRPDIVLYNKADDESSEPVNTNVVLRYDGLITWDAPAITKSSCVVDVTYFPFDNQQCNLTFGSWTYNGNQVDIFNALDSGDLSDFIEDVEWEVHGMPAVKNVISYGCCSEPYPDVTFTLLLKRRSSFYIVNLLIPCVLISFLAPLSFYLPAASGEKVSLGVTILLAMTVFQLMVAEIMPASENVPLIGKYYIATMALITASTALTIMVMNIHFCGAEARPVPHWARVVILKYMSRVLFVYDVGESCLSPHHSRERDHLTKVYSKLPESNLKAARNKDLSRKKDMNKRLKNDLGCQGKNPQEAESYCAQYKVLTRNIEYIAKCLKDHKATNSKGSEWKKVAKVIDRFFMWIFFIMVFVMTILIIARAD
Chain of human α9 (Ile56 to Thr) α10 nAChR (Q9GZZ6 25-450 limits assumed, stated change not applied): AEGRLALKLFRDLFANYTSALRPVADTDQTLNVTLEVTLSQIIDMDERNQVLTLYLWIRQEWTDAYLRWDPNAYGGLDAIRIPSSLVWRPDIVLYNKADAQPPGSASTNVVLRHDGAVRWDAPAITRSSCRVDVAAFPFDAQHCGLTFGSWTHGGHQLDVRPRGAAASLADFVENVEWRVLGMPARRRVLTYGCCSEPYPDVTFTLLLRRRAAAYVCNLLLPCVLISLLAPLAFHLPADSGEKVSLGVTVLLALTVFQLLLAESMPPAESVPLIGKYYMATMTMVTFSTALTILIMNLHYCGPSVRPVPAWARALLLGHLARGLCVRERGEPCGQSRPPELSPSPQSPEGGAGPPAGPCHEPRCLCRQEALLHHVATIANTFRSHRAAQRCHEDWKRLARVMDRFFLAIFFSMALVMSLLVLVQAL
Chain of rat α9 (Thr56 to Ile) α10 nAChR (P43144 26-479 T86I limits assumed, stated change not applied): as the sequence (P43144 26-479 limits assumed) above, with T61I counted along it
Chain of rat α9 (Thr56 to Ile) α10 nAChR (Q9JLB5 25-447 limits assumed, stated change not applied): as the sequence (Q9JLB5 25-447 limits assumed) above

Substance	RgIA potency on rat receptor with Thr56 to Ile in α9 [1]	RgIA potency on human receptor with α9 Ile56 to Thr [2]	increase in RgIA potency on human receptor with α9 Ile56 to Thr [2] [log]	analgesic effect in OXA chemotherapy induced neuropathic pain (Sprague-Dawley rats [3])	efficacy on mechanical hyperalgesia 24 h after injection (Sprague-Dawley rats [4])	pain threshold (mechanical hyperalgesia) 30 min after injection (Sprague-Dawley rats [4])	prevention of OXA-induced mechanical hyperalgesia (Sprague-Dawley rats [4])	activity on mechanical allodynia (von Frey), days 14 and 21 (Sprague-Dawley rats [5])	analgesic effect (von Frey), day 7, 24 h later (Sprague-Dawley rats [5])	prevention of OXA-induced cold allodynia, day 7 (Sprague-Dawley rats [6])	prevention of OXA-induced cold allodynia, day 14 and 21 (Sprague-Dawley rats [6])	burn-induced thermal hyperalgesia (Hargraves method) (Sprague Dawley rats [7])	thermal hyperalgesia in the FTTI model, acute treatment (Sprague Dawley rats [7])	mechanical allodynia in the FTTI model, acute treatment (Sprague Dawley rats [8])	potency on the human versus rat α9α10 nAChR (rat α9α10 nAChR)
GCCSDPRCRYRCR [RgIA]	reduction in RgIA potency on the rat receptor to levels found with the human receptor	increase in RgIA potency on the human receptor to levels found in rat	2	significant analgesic effects on days 14 and 21	still significant	acutely increased pain threshold	significantly prevented	active	not observed	able to prevent OXA-induced cold allodynia	able to prevent OXA-induced cold allodynia	significantly reduced	effectively reduces	effectively reduces	~170 fold
Vc1.1	–	–	–	–	–	–	–	–	–	–	–	–	–	–	significantly less potent
